The values below come from PubChem BioAssay (NCI).

Several values for one entry are separate records, joined by “and”; a condition that tells them apart may be missing. Equal entries are not always repeated.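 In this assay, cells in 96-well plates receive the compound at five concentrations for 48 hours. Endpoints are linearly interpolated between the surrounding concentrations. Abbreviation: GI50, concentration required for 50% inhibition of growth. Definition used: TGI = concentration required for complete inhibition of growth.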

Experiment in all cases: growth of human tumour cells (NCI), 48 h
The test system of test [1] is SK-MEL-5 melanoma.
Test [2] has as its system T-47D breast.
Test [3] has as its system HL-60(TB) leukemia.
Test [4] has as its system OVCAR-4 ovarian.
For test [5], the system named is OVCAR-5 ovarian.
In test [6] the test system is RXF 393 renal.
For test [7], the system named is HOP-92 NSCLC.
Test [8] has as its system NCI-H23 lung.
For test [9], the system named is BT-549 breast.
The subject of test [10] is SK-MEL-2 melanoma.

Take `CCCN(CCC)C(=O)[C@H](CC)[C@@H]1CC[C@@H](C)[C@@H]([C@H](C)[C@@H](O)[C@@H](C)C(=O)[C@H](CC)C2O[C@]3(C=C[C@@H](O)[C@]4(CC[C@@](C)([C@H]5CC[C@](O)(CC)[C@H](C)O5)O4)O3)[C@H](C)C[C@@H]2C)O1` (stereo not given in full): the GI50 was 1.73 µM in test [1]; 3.08 µM in test [2]; 2.26 µM in test [3]; 2.95 µM in test [4]; 2.09 µM in [5]; 1.71 µM in [6]. Also, the GI50 in test [7] is 1.29 µM; in test [8] it was 2.52 µM; in test [9], 3.05 µM; in test [10], 2.43 µM. Also, the TGI in test [1] was found to be 3.16 µM; in test [2], 14.5 µM; in test [3], 5.54 µM; in [4], 13.2 µM; in test [5], 5.27 µM; in test [6] it was 4.04 µM. Besides, the TGI amounted to 4.24 µM in test [7], 7.01 µM in [8], 13.2 µM in [9] and 6.63 µM in test [10].

Regarding `CN(C)c1ccc(O)c2c1C[C@H]1C[C@H]3[C@H](N(C)C)C(=O)C(C(N)=O)=C(O)[C@@]3(O)C(=O)C1=C2O`, the GI50 is 3.38 µM in test [1]; 5.29 µM in [2]; 7.44 µM in [3]; 7.53 µM in test [4]; 15.5 µM in test [5]; 4.01 µM in [6]. In addition, the results for the GI50 in [7], in test [8] and in test [9] were 3.6 µM, 4.95 µM and 4.14 µM, respectively. Besides, the TGI in [1] was 14.7 µM; in test [2] it was more than 100 µM; in test [3], 40.4 µM; in test [4] it was more than 100 µM; in [5], 88.8 µM; in [6], 69.7 µM. The TGI in test [7] was 26.9 µM; in test [8], 39.7 µM; in test [9] it was 20.1 µM.

In the case of `CCOC(=O)C#Cc1c(CC(=O)OCC)nnn1[C@H]1O[C@@H](CO)[C@@H]2OC(C)(C)O[C@@H]21`, the GI50 is 15 µM in test [1]; 2.78 µM in test [2]; 1.86 µM in [3]; 2.11 µM in [4]; 12.1 µM in test [5]; 1.69 µM in test [6]. For the same compound, the GI50 in [7] was 3 µM; in test [8], 13.6 µM; in test [9], 9.1 µM; in [10], 18.4 µM. The TGI turned out to be 28.4 µM in test [1]; 7.55 µM in test [2]; 5.71 µM in test [3]; 5.43 µM in test [4]; 27.3 µM in test [5]; 3.32 µM in test [6]. Also, the TGI in test [7] came to 6.94 µM; in [8], 30.5 µM; in [9] it was 21.2 µM; in test [10] it was 34.8 µM.

In the case of `Cc1ccc(S(=O)(=O)Nc2nc3ccccc3nc2Nc2ccc3nsnc3c2)cc1`, the GI50 was 2.65 µM and 1.88 µM in test [1]; 3.34 µM and 3.47 µM in [2]; 2.96 µM and 2.86 µM in [3]; 3.13 µM in [4]; 17.4 µM and > 81.2 µM in [5]; 6.92 µM and 7.73 µM in test [6]. In addition, the GI50 in [7] is 1.89 µM and 0.294 µM; in test [8], 2.78 µM and 2.93 µM; in test [9] it was 4.25 µM and 3.42 µM; in test [10], 2.87 µM and 3.22 µM. For the same compound, the TGI in test [1] was 11.6 µM and 7.46 µM; in test [2] it was more than 100 µM; in test [3] it was 14 µM and > 30 µM; in test [4], more than 100 µM; in [5], more than 100 µM; in [6], 35.1 µM and > 100 µM. Further, the TGI in test [7] was 8.23 µM and 3.73 µM; in test [8] it was 44.5 µM and > 100 µM; in [9], 26.3 µM and > 29.6 µM.

On to `Clc1ccc2c(c1)-c1ccccc1C1=NCCN12`, for which the GI50 in [1] is 1.56 µM; in test [2], 2.73 µM; in [3] it was 2.43 µM; in test [4] it was 1.99 µM; in test [5], 2.68 µM; in test [6] it was 1.51 µM. Also, the GI50 is 1.19 µM in test [7], 1.85 µM in [8], 2.41 µM in test [9] and 2.02 µM in [10]. Moreover, the TGI was 2.94 µM in test [1]; 8.27 µM in test [2]; 5.47 µM in test [3]; 7.35 µM in test [4]; 13.4 µM in test [5]; 2.98 µM in test [6]. Further, the TGI in test [7] was determined as 3.29 µM; in [8], 4.75 µM; in [9], 9.89 µM; in test [10] it was 3.89 µM.

As for `N=C(N)c1ccc(-c2ccc(-c3cccs3)s2)nc1`, the GI50 in test [1] was 1.8 µM; in [2], 2.06 µM; in test [3] it was 1.78 µM; in test [4] it was 0.944 µM; in [5], 1.26 µM; in [6], 1.56 µM. Also, the GI50 was 0.46 µM in [7], 3.67 µM in [8], 4.79 µM in [9] and 2.19 µM in test [10]. In addition, the TGI in [1] was 3.78 µM; in test [2], 5.57 µM; in test [3], 4.01 µM; in test [4] it was 3.32 µM; in test [5], 5.68 µM; in test [6], 3.54 µM. The TGI worked out at 2.23 µM in [7], 18.9 µM in [8], 16.3 µM in test [9] and 4.2 µM in [10].

For the compound `CC1=C(C(=O)Nc2ccc(F)c(Cl)c2)C(c2cccc(Oc3ccccc3)c2)NC(=O)N1` (stereo not given), the GI50 in test [1] was 13.2 µM; in test [2] it was 15.7 µM; in test [3], 8.07 µM; in [5], 14.9 µM; in [6], 14.4 µM; in [7] it was 12 µM. The GI50 is 15.4 µM in [8], 15.3 µM in test [9] and 17.2 µM in test [10]. The TGI was found to be 26.5 µM in [1]; 34.6 µM in test [2]; 24.7 µM in test [3]; 28.2 µM in test [5]; 32.1 µM in test [6]; 24.9 µM in test [7]. For the same compound, the values for the TGI in test [8], in test [9] and in test [10] were 28.8 µM, 31.1 µM and 32.4 µM, respectively.
